# Key:
# Experiment in all cases: MIC, micro-dilution broth method (CLSI)
# Format in all cases: cell-based
# Escherichia coli = tested on: Escherichia coli
# Klebsiella pneumoniae = tested on: Klebsiella pneumoniae
# Enterobacter cloacae = tested on: Enterobacter cloacae
substance,measurement,setting,value
Colistin,MIC,Escherichia coli; E. coli AR0048,0.5 µg/mL
same,MIC,Escherichia coli; E. coli AR0055,1 µg/mL
same,MIC,Escherichia coli; E. coli AR0058,0.5 µg/mL
same,MIC,Escherichia coli; E. coli AR0061,0.5 µg/mL
same,MIC,Escherichia coli; E. coli AR0067,1 µg/mL
same,MIC,Escherichia coli; E. coli AR0069,0.5 µg/mL
same,MIC,Escherichia coli; E. coli AR0077,0.5 µg/mL
same,MIC,Escherichia coli; E. coli AR0081,0.5 µg/mL
same,MIC,Escherichia coli; E. coli AR0084,0.5 µg/mL
same,MIC,Escherichia coli; E. coli AR0085,0.5 µg/mL
same,MIC,Escherichia coli; E. coli AR0086,0.5 µg/mL
same,MIC,Escherichia coli; E. coli AR0089,0.5 µg/mL
same,MIC,Escherichia coli; E. coli AR0104,0.5 µg/mL
same,MIC,Escherichia coli; E. coli AR0114,0.25 µg/mL
same,MIC,Escherichia coli; E. coli AR0118,0.5 µg/mL
same,MIC,Escherichia coli; E. coli AR0119,0.5 µg/mL
same,MIC,Escherichia coli; E. coli AR0128,0.5 µg/mL
same,MIC,Escherichia coli; E. coli AR0137,1 µg/mL
same,MIC,Escherichia coli; E. coli AR0149,0.5 µg/mL
same,MIC,Escherichia coli; E. coli AR0150,0.5 µg/mL
same,MIC,Escherichia coli; E. coli AR0151,0.5 µg/mL
same,MIC,Escherichia coli; E. coli AR0162,0.5 µg/mL
same,MIC,Escherichia coli; E. coli AR0346,4 µg/mL
same,MIC,Escherichia coli; E. coli AR0348,0.25 µg/mL
same,MIC,Escherichia coli; E. coli AR0350,4 µg/mL
same,MIC,Escherichia coli; E. coli AR0493,8 µg/mL
same,MIC,Escherichia coli; E. coli AR0494,8 µg/mL
same,MIC,Escherichia coli; E. coli AR0495,4 µg/mL
same,MIC,Escherichia coli; E. coli AR0541,0.5 µg/mL
same,MIC,Escherichia coli; E. coli AR0543,0.5 µg/mL
same,MIC,Escherichia coli; E. coli AR0546,0.5 µg/mL
same,MIC,Escherichia coli; E. coli AR0551,0.5 µg/mL
same,MIC,Escherichia coli; E. coli AR0559,0.5 µg/mL
same,MIC,Escherichia coli; E. coli AR-0349 (colistin-resistant clinical isolate),8 µg/mL
same,MIC,Escherichia coli; E. coli AR-0549,0.25 µg/mL
same,MIC,Escherichia coli; E. coli ATCC BAA-2340,0.25 µg/mL
same,MIC,Escherichia coli; E. coli ATCC BAA-2469,0.25 µg/mL
same,MIC,Escherichia coli; E. coli ATCC BAA-2471,0.25 µg/mL
same,MIC,Escherichia coli; E. coli ELZ 4004,0.25 µg/mL
same,MIC,Escherichia coli; E. coli ELZ 4017,0.25 µg/mL
same,MIC,Escherichia coli; E. coli ELZ 4042,0.25 µg/mL
same,MIC,Escherichia coli; E. coli ELZ 4072,0.25 µg/mL
same,MIC,Escherichia coli; E. coli ELZ 4081,0.25 µg/mL
same,MIC,Escherichia coli; E. coli ELZ 4139,0.25 µg/mL
same,MIC,Escherichia coli; E. coli ELZ 4239,0.25 µg/mL
same,MIC,Escherichia coli; E. coli ELZ 4277,0.25 µg/mL
same,MIC,Escherichia coli; E. coli ELZ 4346,0.25 µg/mL
same,MIC,Klebsiella pneumoniae; K. pneumoniae AR0034,0.5 µg/mL
same,MIC,Klebsiella pneumoniae; K. pneumoniae AR0039,0.5 µg/mL
same,MIC,Klebsiella pneumoniae; K. pneumoniae AR0041,0.5 µg/mL
same,MIC,Klebsiella pneumoniae; K. pneumoniae AR0042,0.5 µg/mL
same,MIC,Klebsiella pneumoniae; K. pneumoniae AR0043,0.5 µg/mL
same,MIC,Klebsiella pneumoniae; K. pneumoniae AR0044,0.5 µg/mL
same,MIC,Klebsiella pneumoniae; K. pneumoniae AR0046,4 µg/mL
same,MIC,Klebsiella pneumoniae; K. pneumoniae AR0047,4 µg/mL
same,MIC,Klebsiella pneumoniae; K. pneumoniae AR0049,0.5 µg/mL
same,MIC,Klebsiella pneumoniae; K. pneumoniae AR0066,1 µg/mL
same,MIC,Klebsiella pneumoniae; K. pneumoniae AR0068,0.5 µg/mL
same,MIC,Klebsiella pneumoniae; K. pneumoniae AR0075,0.5 µg/mL
same,MIC,Klebsiella pneumoniae; K. pneumoniae AR0076,0.5 µg/mL
same,MIC,Klebsiella pneumoniae; K. pneumoniae AR0079,0.5 µg/mL
same,MIC,Klebsiella pneumoniae; K. pneumoniae AR0080,0.5 µg/mL
same,MIC,Klebsiella pneumoniae; K. pneumoniae AR0087,4 µg/mL
same,MIC,Klebsiella pneumoniae; K. pneumoniae AR0098,<0.25 µg/mL
same,MIC,Klebsiella pneumoniae; K. pneumoniae AR0106,4 µg/mL
same,MIC,Klebsiella pneumoniae; K. pneumoniae AR0107,<0.25 µg/mL
same,MIC,Klebsiella pneumoniae; K. pneumoniae AR0109,>8 µg/mL
same,MIC,Klebsiella pneumoniae; K. pneumoniae AR0112,0.5 µg/mL
same,MIC,Klebsiella pneumoniae; K. pneumoniae AR0113,0.5 µg/mL
same,MIC,Klebsiella pneumoniae; K. pneumoniae AR0115,0.5 µg/mL
same,MIC,Klebsiella pneumoniae; K. pneumoniae AR0117,1 µg/mL
same,MIC,Klebsiella pneumoniae; K. pneumoniae AR0120,0.5 µg/mL
same,MIC,Klebsiella pneumoniae; K. pneumoniae AR0125,>4 µg/mL
same,MIC,Klebsiella pneumoniae; K. pneumoniae AR0126,0.5 µg/mL
same,MIC,Klebsiella pneumoniae; K. pneumoniae AR0129,0.5 µg/mL
same,MIC,Klebsiella pneumoniae; K. pneumoniae AR0135,0.5 µg/mL
same,MIC,Klebsiella pneumoniae; K. pneumoniae AR0138,2 µg/mL
same,MIC,Klebsiella pneumoniae; K. pneumoniae AR0139,2 µg/mL
same,MIC,Klebsiella pneumoniae; K. pneumoniae AR0140,0.5 µg/mL
same,MIC,Klebsiella pneumoniae; K. pneumoniae AR0141,1 µg/mL
same,MIC,Klebsiella pneumoniae; K. pneumoniae AR0142,0.5 µg/mL
same,MIC,Klebsiella pneumoniae; K. pneumoniae AR0143,1 µg/mL
same,MIC,Klebsiella pneumoniae; K. pneumoniae AR0145,0.5 µg/mL
same,MIC,Klebsiella pneumoniae; K. pneumoniae AR0146,0.5 µg/mL
same,MIC,Klebsiella pneumoniae; K. pneumoniae AR0148,1 µg/mL
same,MIC,Klebsiella pneumoniae; K. pneumoniae AR0152,0.5 µg/mL
same,MIC,Klebsiella pneumoniae; K. pneumoniae AR0153,0.5 µg/mL
same,MIC,Klebsiella pneumoniae; K. pneumoniae AR0158,0.5 µg/mL
same,MIC,Klebsiella pneumoniae; K. pneumoniae AR0160,1 µg/mL
same,MIC,Klebsiella pneumoniae; K. pneumoniae AR0347,<0.25 µg/mL
same,MIC,Klebsiella pneumoniae; K. pneumoniae AR0542,>8 µg/mL
same,MIC,Klebsiella pneumoniae; K. pneumoniae AR0548,0.5 µg/mL
same,MIC,Klebsiella pneumoniae; K. pneumoniae AR0550,<0.25 µg/mL
same,MIC,Klebsiella pneumoniae; K. pneumoniae AR0552,0.5 µg/mL
same,MIC,Klebsiella pneumoniae; K. pneumoniae AR0553,0.5 µg/mL
same,MIC,Klebsiella pneumoniae; K. pneumoniae AR0554,0.5 µg/mL
same,MIC,Klebsiella pneumoniae; K. pneumoniae AR0555,0.5 µg/mL
same,MIC,Klebsiella pneumoniae; K. pneumoniae AR-0040,8 µg/mL
same,MIC,Enterobacter cloacae; E. cloacae AR0032,0.5 µg/mL
same,MIC,Enterobacter cloacae; E. cloacae AR0038,0.5 µg/mL
same,MIC,Enterobacter cloacae; E. cloacae AR0050,0.25 µg/mL
same,MIC,Enterobacter cloacae; E. cloacae AR0053,0.5 µg/mL
same,MIC,Enterobacter cloacae; E. cloacae AR0060,0.5 µg/mL
same,MIC,Enterobacter cloacae; E. cloacae AR0065,0.5 µg/mL
same,MIC,Enterobacter cloacae; E. cloacae AR0072,1 µg/mL
same,MIC,Enterobacter cloacae; E. cloacae AR0073,8 µg/mL
same,MIC,Enterobacter cloacae; E. cloacae AR0093,0.5 µg/mL
same,MIC,Enterobacter cloacae; E. cloacae AR0132,1 µg/mL
same,MIC,Enterobacter cloacae; E. cloacae AR0136,0.5 µg/mL
same,MIC,Enterobacter cloacae; E. cloacae AR0154,0.5 µg/mL
same,MIC,Enterobacter cloacae; E. cloacae AR0164,0.5 µg/mL
same,MIC,Enterobacter cloacae; E. cloacae AR0544,0.25 µg/mL
same,MIC,Enterobacter cloacae; E. cloacae AR0545,0.5 µg/mL
same,MIC,Enterobacter cloacae; E. cloacae AR-0163,16 µg/mL
same,MIC,Enterobacter cloacae; E. cloacae ATCC BAA-2341,0.5 µg/mL
same,MIC,Enterobacter cloacae; E. cloacae ATCC BAA-2468,0.25 µg/mL

# From patent US20250051300A1, “GRAM-NEGATIVE SPECIFIC ANTIBIOTICS SPARING EFFECT ON GUT MICROBIOME” (THE BOARD OF TRUSTEES OF THE UNIVERSITY OF ILLINOIS, priority 2021, published 2025)
